Measured values from patent publication US20160333419A1, “GENE SIGNATURES ASSOCIATED WITH SENSITIVITY TO MDM2 INHIBITORS” (DAIICHI SANKYO COMPANY, LIMITED, priority 2014, published 2016).

Legend:
Assay in all cases: OncoPanel cytotoxicity assay
Format in all cases: cell-based
A-673 = conditions: Homo sapiens, A673, 72 hour incubation
Procedure, shortened: (§1)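 Cells grown in RPMI 1640 with 10% FBS (or a special medium) at 37° C, 5% CO2 were treated 24 hours after seeding for 72 hours with 10 concentrations (3.16-fold dilutions, 0.1% DMSO final). Nuclei were dye-stained and imaged; IC50 was fit from percent of control relative cell count.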

A427 = conditions: Homo sapiens, A-427, 72 hour incubation
Procedure, shortened: as §1

AU565 = conditions: Homo sapiens, 72 hour incubation
Procedure, shortened: as §1

BT20 = conditions: Homo sapiens, BT-20, 72 hour incubation
Procedure, shortened: as §1

CCF-STTG1 = conditions: Homo sapiens, 72 hour incubation
Procedure, shortened: as §1

CHL-1 = conditions: Homo sapiens, 72 hour incubation
Procedure, shortened: as §1

CHP-212 = conditions: Homo sapiens, 72 hour incubation
Procedure, shortened: as §1

Caki-1 = conditions: Homo sapiens, 72 hour incubation
Procedure, shortened: as §1

D283 Med = conditions: Homo sapiens, 72 hour incubation
Procedure, shortened: as §1

HCT-116 = conditions: Homo sapiens, 72 hour incubation
Procedure, shortened: as §1

HCT-15 = conditions: Homo sapiens, 72 hour incubation
Procedure, shortened: as §1

HCT-8 = conditions: Homo sapiens, 72 hour incubation
Procedure, shortened: as §1

HEC-1-A = conditions: Homo sapiens, 72 hour incubation
Procedure, shortened: as §1

HOS = conditions: Homo sapiens, 72 hour incubation
Procedure, shortened: as §1

HT-1197 = conditions: Homo sapiens, HT1197, 72 hour incubation
Procedure, shortened: as §1

HT-29 = conditions: Homo sapiens, 72 hour incubation
Procedure, shortened: as §1

Hs 766T = conditions: Homo sapiens, Hs766T, 72 hour incubation
Procedure, shortened: as §1

HuP-T4 = conditions: Homo sapiens, 72 hour incubation
Procedure, shortened: as §1

J-RT3-T3-5 = conditions: Homo sapiens, 72 hour incubation
Procedure, shortened: as §1

J82 = conditions: Homo sapiens, 72 hour incubation
Procedure, shortened: as §1

NCI-H508 = conditions: Homo sapiens, 72 hour incubation
Procedure, shortened: as §1

RPMI 8226 = conditions: Homo sapiens, 72 hour incubation
Procedure, shortened: as §1

Raji = conditions: Homo sapiens, 72 hour incubation
Procedure, shortened: as §1

SCC-9 = conditions: Homo sapiens, 72 hour incubation
Procedure, shortened: as §1

SH-4 = conditions: Homo sapiens, 72 hour incubation
Procedure, shortened: as §1

SK-LMS-1 = conditions: Homo sapiens, 72 hour incubation
Procedure, shortened: as §1

SK-MEL-3 = conditions: Homo sapiens, SK-MEL3, 72 hour incubation
Procedure, shortened: as §1

SK-N-FI = conditions: Homo sapiens, 72 hour incubation
Procedure, shortened: as §1

SKOV3 = conditions: Homo sapiens, SK-OV-3, 72 hour incubation
Procedure, shortened: as §1

SU.86.86 = conditions: Homo sapiens, 72 hour incubation
Procedure, shortened: as §1

SW-13 = conditions: Homo sapiens, SW13, 72 hour incubation
Procedure, shortened: as §1

SW48 = conditions: Homo sapiens, 72 hour incubation
Procedure, shortened: as §1

SW900 = conditions: Homo sapiens, 72 hour incubation
Procedure, shortened: as §1

SW954 = conditions: Homo sapiens, SW 954, 72 hour incubation
Procedure, shortened: as §1

U-87 MG = conditions: Homo sapiens, 72 hour incubation
Procedure, shortened: as §1

U266B1 = conditions: Homo sapiens, 72 hour incubation
Procedure, shortened: as §1

WiDr = conditions: Homo sapiens, 72 hour incubation
Procedure, shortened: as §1

YAPC = conditions: Homo sapiens, 72 hour incubation
Procedure, shortened: as §1

Compound | IC50 (A-673) | IC50 (A427) | IC50 (AU565) | IC50 (BT20) | IC50 (CCF-STTG1) | IC50 (CHL-1) | IC50 (CHP-212) | IC50 (Caki-1) | IC50 (D283 Med) | IC50 (HCT-116) | IC50 (HCT-15) | IC50 (HCT-8) | IC50 (HEC-1-A) | IC50 (HOS) | IC50 (HT-1197) | IC50 (HT-29) | IC50 (Hs 766T) | IC50 (HuP-T4) | IC50 (J-RT3-T3-5) | IC50 (J82) | other results
CC[C@@H]1CNC2(CC2)CN1C(=O)[C@@H]1C[C@@H](F)CN1C(=O)C1=C(C(C)C)N2C(=N[C@@](C)(c3ccc(Cl)nc3)[C@H]2c2ccc(Cl)c(F)c2)S1 [Compound A, [(5R,6S)-5-(4-Chloro-3-fluorophenyl)-6-(6-chloropyridin-3-yl)-6-methyl-3-(propan-2-yl)-5,6-dihydroimidazo[2,1-b][1,3]thiazol-2-yl][(2S,4R)-2-{[(6R)-6-ethyl-4,7-diazaspiro[2.5]oct-7-yl]carbonyl}-4-fluoropyrrolidin-1-yl]methanone] | > 40 µM | 1.65 µM | 23.7 µM | > 40 µM | 0.541 µM | > 40 µM | 0.196 µM | 0.275 µM | 0.529 µM | 0.653 µM | 32 µM | 0.506 µM | > 40 µM | > 40 µM | 0.235 µM | 33.5 µM | > 40 µM | > 40 µM | > 40 µM | > 40 µM | IC50 (NCI-H508): > 40 µM; IC50 (RPMI 8226): > 40 µM; IC50 (Raji): 13.8 µM; IC50 (SCC-9): > 40 µM; IC50 (SH-4): 0.59 µM; IC50 (SK-LMS-1): > 40 µM; IC50 (SK-MEL-3): > 40 µM; IC50 (SK-N-FI): > 40 µM; IC50 (SKOV3): > 40 µM; IC50 (SU.86.86): > 40 µM; IC50 (SW-13): 8.33 µM; IC50 (SW48): 1.09 µM; IC50 (SW900): > 40 µM; IC50 (SW954): > 40 µM; IC50 (U-87 MG): 0.261 µM; IC50 (U266B1): > 40 µM; IC50 (WiDr): 34.8 µM; IC50 (YAPC): > 40 µM
CC1(C)CCC2(CC1)N[C@@H](C(=O)N[C@@H]1CC[C@@H](C(N)=O)OC1)[C@H](c1ccnc(Cl)c1F)[C@]21C(=O)Nc2cc(Cl)ccc21 [Compound B, (3′R,4′S,5′R)—N-[(3R,6S)-6-carbamoyltetrahydro-2H-pyran-3-yl]-6″-chloro-4′-(2-chloro-3-fluoropyridin-4-yl)-4,4-dimethyl-2″-oxo-1″,2″-dihydrodispiro[cyclohexane-1,2′-pyrrolidine-3′,3″-indole]-5′-carboxamide] | 9.21 µM | 0.143 µM | > 10 µM | > 10 µM | 0.0852 µM | 9.1 µM | 0.0294 µM | 0.0387 µM | 0.0819 µM | 0.0505 µM | > 10 µM | 0.0516 µM | > 10 µM | > 10 µM | 0.135 µM | 5.14 µM | > 10 µM | > 10 µM | > 10 µM | > 10 µM | IC50 (NCI-H508): > 10 µM; IC50 (RPMI 8226): 0.065 µM; IC50 (Raji): 5.32 µM; IC50 (SCC-9): > 10 µM; IC50 (SH-4): 0.116 µM; IC50 (SK-LMS-1): > 10 µM; IC50 (SK-MEL-3): > 10 µM; IC50 (SK-N-FI): > 10 µM; IC50 (SKOV3): > 10 µM; IC50 (SU.86.86): 8.86 µM; IC50 (SW-13): 8.45 µM; IC50 (SW48): 0.125 µM; IC50 (SW900): > 10 µM; IC50 (SW954): 8.33 µM; IC50 (U-87 MG): 0.0376 µM; IC50 (U266B1): > 10 µM; IC50 (WiDr): 5.58 µM; IC50 (YAPC): > 10 µM
